This test relates to M. tuberculosis H37Rv growth inhibition. Nature of the test: Mycobacterium tuberculosis H37Rv growth inhibition, cell based, confirmatory dose response (AID 1949).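 Further: bacteria grown 7 days with compound before Alamar blue readout.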

≈ marks a conversion by molar mass, not a printed value. Inconclusive results are not listed. Calls of active or inactive are those of the source. How the calls were made is not given here.

Broadly, the IC50 is the concentration needed to halve the response being measured. Take `O=C(Nc1ccc(OC(F)(F)C(F)F)cc1)Nc1cccc(Cl)c1`: the IC50 was 0.75 µg/mL (≈ 2.07 µM).
`S=C(NCCc1ccccc1)NCCc1ccc(Cl)cc1`: the IC50 was 9.95 µg/mL (≈ 31.2 µM).
For the molecule `O=C(CCN1CCC(c2ccccc2)C1)c1ccccc1` (centres undefined), the IC50 is 12.5 µg/mL (≈ 44.6 µM).
With `Cc1ccc2nc(-c3ccncc3)cc(C(=O)Nc3ccc(C(=O)N4CCCC4)cc3)c2c1`, the IC50 was 8.89 µg/mL (≈ 20.4 µM).
On to `O=[N+]([O-])c1ccc(NCCNc2nc3ccccc3nc2N2CCOCC2)cc1`, for which the IC50 is 1.64 µg/mL (≈ 4.16 µM).
Regarding `CCOc1cc2c3c(c1)C1(C(=O)N3C(C)(C)C=C2C)C(C#N)=C(N)Oc2cc(O)ccc21` (centres undefined), the IC50 is 3.09 µg/mL (≈ 7.19 µM).
`O=C(Nc1cccc([N+](=O)[O-])c1)N1CCN(Cc2ccc(Cl)cc2Cl)CC1`: the IC50 was 5.06 µg/mL (≈ 12.4 µM).
For `O=C(NC(Nc1ccc([N+](=O)[O-])cc1)C(Cl)(Cl)Cl)c1cccc(I)c1` (centres undefined), the IC50 was 7.08 µg/mL (≈ 13.8 µM).
Regarding `CCCCc1cc(=O)oc2cc(OCC(=O)OCc3ccccc3)c(Cl)cc12`, the IC50 is less than 0.1 µg/mL.
`Cc1cc(C)c2nc(NC3=NC(c4ccccc4)CC(=O)N3)nc(C)c2c1` (centres undefined): the IC50 was > 50 µg/mL (inactive).
For `c1ccc(COc2ccc3ccccc3c2CNCc2cccnc2)cc1`, the IC50 is 7.91 µg/mL (≈ 22.3 µM).
Regarding `Cc1cc(O)ccc1Nc1nc(-c2ccccn2)cs1`, the IC50 was 1.42 µg/mL (≈ 5.01 µM).
As for `CCN(CC)c1ccc(NC(=S)NCc2ccc(Cl)cc2)cc1`, the IC50 was 3.18 µg/mL (≈ 9.14 µM).
In the case of `CCOC(=O)COc1ccc2c3c(c(=O)oc2c1)CCCCC3`, the IC50 is 2.73 µg/mL (≈ 8.63 µM).
`O=C(CCN1C(=O)C2C3C=CC(C3)C2C1=O)Oc1cccc2cccnc12` (centres undefined): the IC50 was 14.8 µg/mL (≈ 40.7 µM).
As for `NC(CC(=O)c1ccc(Cl)cc1Cl)C(Cl)(Cl)Cl` (centres undefined), the IC50 was 0.27 µg/mL (≈ 0.805 µM).
As to `Cc1oc2ccc(OCC(=O)OCc3ccccc3)cc2c1C(=O)OC(C)C`, the half-inhibitory concentration (IC50) is 9.08 µg/mL (≈ 23.7 µM).
With `CCn1c2ccccc2c2nnc(SCCCn3c(=O)[nH]c4ccccc43)nc21`, the IC50 was > 50 µg/mL (inactive).
In the case of `O=C(COc1cccc2ccccc12)c1ccc(F)cc1`, the 50% inhibitory concentration (IC50) was 2.82 µg/mL (≈ 10.1 µM).
In the case of `COc1ccc(NC(=O)C(Cc2c[nH]c3ccccc23)NC(C)=O)cc1` (centres undefined), the IC50 is 3.08 µg/mL (≈ 8.76 µM).
The figure for `COC(=O)COc1cccc(NC(=O)c2cccc(C)c2)c1` is 2.85 µg/mL (≈ 9.52 µM); for `COC(=O)COc1ccc2c(=O)c(Oc3ccccc3)c(C(F)(F)F)oc2c1` it is 6.6 µg/mL (≈ 16.7 µM); for `COc1ccccc1NC(=O)C1=C(C)NC(SCC(=O)Nc2ccccc2[N+](=O)[O-])=C(C#N)C1c1ccccc1F` (centres undefined) it is 12 µg/mL (≈ 21 µM).
Turning to `O=C(c1ccc(Cl)cc1)c1ccc(CSc2nnc(-c3ccccc3)o2)o1`, the IC50 is less than 0.1 µg/mL.
With `O=S1(=O)C=CC2ON=C(c3ccc(Cl)cc3)C21` (centres undefined) the figure was 1.11 µg/mL (≈ 4.12 µM); with `O=C(Nc1ccc2c(c1)CCC2)c1ccc(Br)s1`, 1.45 µg/mL (≈ 4.5 µM).
For the molecule `Brc1ccc(-c2nn(-c3ccccc3)cc2CNCc2ccccc2)cc1`, the IC50 was 1.24 µg/mL (≈ 2.96 µM).
In the case of `COc1ccc(-c2cc(C(=O)Nc3ccc(C(=O)N4CCOCC4)cc3)c3cc(C)ccc3n2)cc1`, the IC50 is > 50 µg/mL (inactive).
For `CC(NC(=O)Nc1cccc(C(F)(F)F)c1)C1CC2CCC1C2` (centres undefined), the IC50 was less than 0.1 µg/mL.
Regarding `COc1ccc(-c2ccc(C#N)c(SCC(=O)OCc3ccccc3)n2)cc1`, the concentration for half-maximal inhibition (IC50) was 14.3 µg/mL (≈ 36.5 µM).
For the molecule `CCCCOc1ccc(NC2=NC3(CCCCC3)N=C(N)N2)cc1`, the IC50 is 12.1 µg/mL (≈ 36.6 µM).
Consider `CC(=O)c1c(O)n(C)c(=S)n(C)c1=O`, for which the IC50 is > 50 µg/mL (inactive).
With `CCCOc1ccc(Nc2cc(C)nc3ccc(Cl)cc23)cc1` the figure was 0.74 µg/mL (≈ 2.26 µM); with `COc1cc(/C=C/c2ccc3cccc(O)c3n2)ccc1O`, 0.27 µg/mL (≈ 0.92 µM).
With `COc1ccc(-c2cc(C(F)F)n3ncc(C(=O)N4CCN(c5ccccc5)CC4)c3n2)cc1` the figure was > 50 µg/mL (inactive); with `Cc1cc(C)nc(/N=C(\N)Nc2ccc(OCc3ccc(Cl)cc3)cc2)n1`, 34.4 µg/mL (≈ 90.2 µM).
The figure for `CC1CCc2c(sc3ncnc(Nc4ccc(OCc5ccccc5)cc4)c23)C1` (centres undefined) is > 50 µg/mL (inactive).
With `CCOC(=O)C(C)Oc1ccc2c(-c3ccc(OC)cc3)cc(=O)oc2c1` (centres undefined), the IC50 was 1.35 µg/mL (≈ 3.66 µM).
Consider `O=C(NCCc1c[nH]c2ccccc12)C(Cl)Cl`, for which the IC50 was 2.63 µg/mL (≈ 9.7 µM).
